According to patent US20240189289A1, “INHIBITORS OF EPHB3 SIGNALING” (The Brigham and Women`s Hospital, Inc., priority 2021, published 2024):

How the values were obtained:
astrocytes = assay: Cytotoxicity (LDH release) and apoptosis (caspase-3/7) assay; format: cell-based
Protocol: Cytotoxicity and apoptosis assay. Compound cytotoxicity was inferred by quantifying Lactate Deshidrogenase (LDH) release to the cells supernatants after 24 h using the CytoTox 96© Non-Radioactive Cytotoxicity Assay, (Promega #G1780) following by manufacturer's protocol. […] Briefly cells were washed with 0.5% BSA, 2 mM EDTAin 1×PBS and incubated with surface antibodies and a live/dead cell marker on ice for 30 minutes. After, cells were washed and following staining for Caspase-3/7 according the manufacturer's instructions (Invitrogen, #C10427).

splenic CD11b+ monocytes = assay: Monocyte migration assay with astrocyte-conditioned medium; format: cell-based, mouse; conditions: ACM from astrocytes pre-treated with compound
Protocol: Generation of astrocyte-conditioned medium (ACM). […] After 24 h, cells were extensively washed with 1×PBS, and incubated with fresh astrocyte complete medium for 48 h. Supernatants were spun down and kept at −80° C. until tested in migration and neurotoxicity assays.
Monocyte Migration Assay. Monocytes were purified from spleens from C57BL/6J mice using CD11b Microbeads (#130-049-601, Miltenyi) following the manufacturer's instructions. 100,000 monocytes were seeded in the upper chamber of a 24-well cell culture transwell, with a 5 μm pore size (#3421, Thermo Fisher Scientific), containing 300 μL of astrocyte-conditioned medium (as detailed earlier) in the bottom chamber. After 3 h incubation at 37° C. in 5% CO2, cells were collected from the lower chamber after shaking and accutase solution incubation (#A6964, Sigma-Aldrich) and quantified by FACS.

EAE in C57BL/6 mice = EAE in C57BL/6 mice (MOG35-55); format: in vivo, mouse
Protocol: EAE. EAE was induced in 8-10 week old female C57BL/6 or NOD by subcutaneous immunization with 150 μg MOG35-55 (#110582, Genemed Synthesis) emulsified in 200 μL of complete Freund's adjuvant per mouse, followed by administration of 200 ng pertussis toxin (#180, List biological Laboratories) on days 0 and 2 as described. […] EAE was assessed as follows: 0, no signs of disease; 1, loss of tone in the tail; 2, hind limb paresis; 3, hind limb paralysis; 4, tetraplegia; 5, moribund.
Mononuclear cells. Mononuclear cells, including astrocytes, monocytes, and microglia, were isolated from the CNS as described. Briefly, mice were perfused with 1×PBS and the isolated brain and spinal cords were homogenized with a razor blade, digested in 0.66 mg/mL papain (#P4762, Sigma-Aldrich) for 15 minutes at 37° C. and subsequently 15 minutes with 0.66 mg/mL Collagenase D (#11088858001, Roche) and 8 U/mL DNase I (#90083, Thermo Fisher Scientific). Samples where then homogenized and filtered through a 70 µm cell strainer and resuspended in 30% Percoll TM solution (#17-5445-01, GE Healthcare) overlayed by 1×PBS for myelin removal. Isolated mononuclear CNS cells were washed with 1×PBS and stained with fluorochrome-conjugated antibody to FITC anti-CD11b (Cat #11-0112-85, eBioscience), APC anti-CD45 (Cat #17-0451-83, eBioscience), BV421 anti-Ly-6C (Cat #128031, Biolegend), PE anti-mouse CD45R/B220 (Cat #553089, BD Biosciences), PE anti-CD140a (Cat #12-1401-81, eBioscience), PE anti-CD105 (Cat #12-1051-82, eBioscience), PE anti-04 (Cat #FAB1326P, R&D), PE anti-Ly-6G (Cat #127608, BioLegend) and PE anti-mouse TER-119 (Cat #116207, BioLegend). Microglia were sorted as CD11b^+CD45^lo Ly6C1^lo, inflammatory monocytes were considered as CD45^hiCD11b^+Ly6C1^hi. Astrocytes were sorted as CD11b^loCD45^lo Ly6C^loCD105^lo CD140a^lo CD11b^loTer119^loCD19^lo after the exclusion of erythrocytes, lymphocytes, microglia, oligodendrocytes, and monocytes. FACSAria IIU (BD Biosciences) was used for cell sorting.
Analysis of T cells. For T-cell flow cytometry analysis, CNS single-cell suspensions or splenocytes were stimulated with 50 ng/mL phorbol 12-myristate 13-acetate (PMA, #P1585, Sigma-Aldrich), 1 μM ionomycin (#I9657, Sigma-Aldrich), GolgiSTOP and (#554724, BD Biosciences, 1:1500) GolgiPLUG (#555029, BD Biosciences, 1:1500) in RPMI 1640 medium (#11875119, Life Technologies) containing 10% FBS (#10438026, GIBCO), penicillin/streptomycin (#15140122, GIBCO, 1:100) for 4 h at 37° C. in a 5% CO2 incubator. Following stimulation, T cells were stained with antibodies against surface markers, and thereafter fixed and stained with antibody against intracellular target protein with an intracellular antibody labeling kit following its instructions (#00-5523, eBioscience).
RNA-sequencing. Sorted astrocytes or microglia were re-suspended in extraction buffer of Picopure RNA isolation kit (KIT0204, Thermo Fisher) and after 30 min incubation at 42° C. samples were extracted following manufacturer's instructions with on-column DNase I digestion (QIAGEN, #79254). RNA was suspended in 10 μl of nuclease free water and 5 μl were sent for SMARTseq sequencing by the Broad Technology Labs and the Broad Genomics Platform. Processed RNA-Seq data was filtered, removing genes with low read counts. Read counts were normalized using TMM normalization and CPM (counts per million) were calculated to create a matrix of normalized expression values.
H&E, LFB and silver staining. Transverse sections from lumbar spinal cords of EAE mice at the end of the experiment were fixed in 4% paraformaldehyde, pH 7.4, embedded in paraffin and cut at 10-μm thickness. Sections were stained with Hematoxylin and Eosin, Luxol fast blue, or silver nitrate. Images were acquired by using a Zeiss Axioskop2 plus microscope with AxioCam HRC and AxioVision software and analyzed by using ImageJ software. […]

[1] = 20 mg/kg from the peak of the disease
[2] = daily intraperitoneal injections

`O=C(Nc1ccccc1Cl)c1cnc2ccc(C3CCNCC3)cn12` [A38] was tested, and the “cytotoxicity (LDH release)” value (astrocytes; FIG. 1B) was “did not induce cytotoxicity”, the “apoptosis (caspase-3/7 activation)” value (astrocytes; FIG. 7A) was “did not induce cytotoxicity or apoptosis” and the ACM chemoattractant activity (splenic CD11b+ monocytes) was “reduced ACM neurotoxic and chemoattractant activity”. The T-cell response (EAE in C57BL/6 mice; [1]) was “did not affect T-cell response”, the “astrocyte and microglial expression of transcriptional modules associated with CNS inflammation and neurodegeneration (RNA-seq)” value (EAE in C57BL/6 mice; [1]) was “decreased” and the “axonal loss (histopathology)” value (EAE in C57BL/6 mice; [1]) was “reduced demyelination, and axonal loss”. The “demyelination (histopathology)” value (EAE in C57BL/6 mice; [1]) was “reduced demyelination”, the “recruitment of Ly6C^Hi pro-inflammatory monocytes to the CNS” value (EAE in C57BL/6 mice; [1]) was “reduced the recruitment” and the EAE clinical scores (EAE in C57BL/6 mice; 20 mg/kg i.p. twice a day from the peak of the disease) was “ameliorated EAE, as indicated by the reduction in clinical scores”. For the same compound, the “expression of genes related to ROS metabolic processes in astrocytes isolated from treated EAE mice” value (EAE in C57BL/6 mice; FIG. 5D) was “a decrease in the expression”, the “therapeutic effects of A38 concomitant with EphB3 knockdown in astrocytes” value (EAE in C57BL/6 mice; compared with either intervention alone) was “did not further increase the therapeutic effects” and the “T cell counts in the spleen” value (EAE in C57BL/6 mice; [2]) was “unchanged”. For the same compound, the “pro-inflammatory monocytes in the CNS” value (EAE in C57BL/6 mice; [2]) was “decrease”, the “course of EAE, preventive treatment” value (EAE in C57BL/6 mice; daily intraperitoneal injections from day 3 (priming phase)) was “did not alter the course of EAE” and the “clinical course of EAE, treatment during the chronic phase” value (EAE in C57BL/6 mice; daily intraperitoneal injections from day 21) was “ameliorated the clinical course significantly”. For the same compound, the “IFN-γ and IL-17 producing T cells in the CNS” value (EAE in C57BL/6 mice; daily intraperitoneal injections, chronic phase) was “significant decrease”.
